According to ChEMBL document CHEMBL4665675 (J Med Chem, 2020):

How the values were obtained:
LoVo = experiment: Antiproliferative activity against human LoVo cells incubated for 72 hrs by sulforhodamine B assay; assay type: functional, cell-based
BALB/3T3 = experiment: Cytotoxicity against mouse BALB/3T3 cells incubated for 72 hrs by sulforhodamine B assay; assay type: cell-based; details: BALB/3T3, 72 h
MCF7 [1] = experiment: Antiproliferative activity against human MCF7 cells incubated for 72 hrs by sulforhodamine B assay; assay type: functional, cell-based; details: MCF7, 72 h
A549 [2] = experiment: Antiproliferative activity against human A549 cells incubated for 72 hrs by sulforhodamine B assay; assay type: functional, cell-based; details: A549, 72 h
[3] = Antiproliferative activity against human LoVo/DX cells incubated for 72 hrs by sulforhodamine B assay; assay type: functional, cell-based
CCRF-CEM = experiment: Cytotoxicity against human CEM cells incubated for 48 to 72 hrs by Cell Titer 96 aqueous one solution cell proliferation assay; assay type: functional, cell-based
A2780 = experiment: Cytotoxicity against human A2780 cells; assay type: functional, cell-based
MCF7 [4] = experiment: Cytotoxicity against human MCF7 cells; assay type: functional, cell-based
Bel-7402 = experiment: Cytotoxicity against human BEL7402 cells; assay type: functional, cell-based
A549 [5] = experiment: Cytotoxicity against human A549 cells; assay type: functional, cell-based
[6] = Antiproliferative activity against human ALL5 cells incubated for 120 hrs by MTT assay; assay type: functional, cell-based; details: ALL5, 120 h
HeLa = experiment: Cytotoxicity against human HeLa cells after 24 to 72 hrs by Cell Titer Blue assay; assay type: cell-based
[7] = target: T1, carboxylesterase 1 (CES1) (Homo sapiens, UniProt P23141); experiment: Substrate activity at human carboxylesterase 1 expressed in baculovirus infected Sf9 insect cells assessed as enzyme-catalysed compound cleavage incubated for 2 hrs by HPLC analysis; assay type: ADME; details: read-out: Activity
T1 sequence (P23141 whole entry): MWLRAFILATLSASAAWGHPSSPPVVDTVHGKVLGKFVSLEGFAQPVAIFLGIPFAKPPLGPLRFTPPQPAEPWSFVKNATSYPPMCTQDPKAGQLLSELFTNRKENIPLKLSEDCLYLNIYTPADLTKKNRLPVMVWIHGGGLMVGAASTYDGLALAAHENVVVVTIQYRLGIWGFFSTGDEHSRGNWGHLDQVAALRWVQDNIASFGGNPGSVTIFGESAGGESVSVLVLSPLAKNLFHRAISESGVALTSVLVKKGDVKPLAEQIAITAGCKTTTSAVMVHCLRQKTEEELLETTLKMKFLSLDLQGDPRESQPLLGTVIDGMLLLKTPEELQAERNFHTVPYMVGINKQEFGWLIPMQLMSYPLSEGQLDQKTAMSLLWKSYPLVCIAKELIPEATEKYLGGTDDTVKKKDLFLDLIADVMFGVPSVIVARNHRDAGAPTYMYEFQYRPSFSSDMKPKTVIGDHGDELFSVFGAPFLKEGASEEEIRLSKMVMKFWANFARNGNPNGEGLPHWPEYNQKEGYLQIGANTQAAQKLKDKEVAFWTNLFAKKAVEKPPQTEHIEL

P388 = experiment: Antiproliferative activity against mouse P388 cells incubated for 72 hrs by Coulter counter method; assay type: functional, cell-based; details: P388, 72 h

IC50 (LoVo)	IC50 (MCF7 [1])	IC50 (A549 [2])	SMILES	IC50 (BALB/3T3)	IC50 [3]	also measured
21 nM	10 nM	11 nM	COc1c(F)c2c(c(OC)c1OC)-c1ccc(SC)c(=O)cc1[C@@H](NC(C)=O)CC2	114 nM	398 nM	
			COc1cc2c(c(OC(=O)C(C)C)c1OC)-c1ccc(OC)c(=O)cc1[C@@H](NC(C)=O)CC2			IC50 (CCRF-CEM): 12 nM
			COc1cc2c(c(OC)c1OC)-c1ccc(NCCOC(=O)CCC(=O)OCCCCCCO[N+](=O)[O-])c(=O)cc1[C@@H](NC(C)=O)CC2			IC50 (A2780): 20 nM; IC50 (MCF7 [4]): 40 nM; IC50 (Bel-7402): 40 nM; IC50 (A549 [5]): 40 nM
			COc1cc2c(c(O)c1OC)-c1ccc(OC)c(=O)cc1[C@@H](NC(C)=O)CC2			IC50 (CCRF-CEM): 15 nM
10 nM	10 nM	10 nM	COc1c(Cl)c2c(c(OC)c1OC)-c1ccc(SC)c(=O)cc1[C@@H](NC(=O)CCCCl)CC2	10 nM	10 nM	IC50 [6]: 10 nM
			COc1cc2c(c(OC)c1OC)-c1ccc(NCCCCCC(=O)N[C@@H](CC(C)C)C(=O)OC3CCCC3)c(=O)cc1[C@@H](NC(C)=O)CC2			IC50 (HeLa): 4620 nM; metabolised at 2 h [7]: 36%
2 nM	2 nM	2 nM	COc1c(Cl)c2c(c(OC)c1OC)-c1ccc(SC)c(=O)cc1[C@@H](NC(=O)C(C)C)CC2	2 nM	2 nM	IC50 [6]: 2 nM
			CCCNc1ccc2c(cc1=O)[C@@H](NC(C)=O)CCc1cc(OC)c(OC)c(OC)c1-2			IC50 (P388): 36 nM
			COc1cc2c(c(OC)c1OC)-c1ccc(NCCOC(=O)CCC(=O)Oc3cccc(CO[N+](=O)[O-])c3)c(=O)cc1[C@@H](NC(C)=O)CC2			IC50 (A2780): 20 nM; IC50 (MCF7 [4]): 17 nM; IC50 (Bel-7402): 17 nM; IC50 (A549 [5]): 17 nM
20 nM	20 nM	20 nM	COc1c(Cl)c2c(c(OC)c1OC)-c1ccc(SC)c(=O)cc1[C@@H](NC(=O)OC(C)C)CC2	20 nM	20 nM	
			CCC(=O)Oc1c(OC)c(OC)cc2c1-c1ccc(OC)c(=O)cc1[C@@H](NC(C)=O)CC2			IC50 (CCRF-CEM): 12 nM
20 nM	20 nM	20 nM	CCCCOC(=O)N[C@H]1CCc2c(Cl)c(OC)c(OC)c(OC)c2-c2ccc(SC)c(=O)cc21	20 nM	20 nM	
			COc1cc2c(c(OC)c1OC)-c1ccc(NCCOC(=O)CCC(=O)OCCCO[N+](=O)[O-])c(=O)cc1[C@@H](NC(C)=O)CC2			IC50 (A2780): 20 nM; IC50 (MCF7 [4]): 40 nM; IC50 (Bel-7402): 40 nM; IC50 (A549 [5]): 40 nM
			CCOc1c(OC)c(OC)cc2c1-c1ccc(OC)c(=O)cc1[C@@H](NC(C)=O)CC2			IC50 (CCRF-CEM): 12 nM
			COc1cc2c(c(OC)c1OC)-c1ccc(NC(C)C)c(=O)cc1[C@@H](NC(C)=O)CC2			IC50 (P388): 48 nM
8 nM	8 nM	8 nM	CCCOC(=O)N[C@H]1CCc2c(Cl)c(OC)c(OC)c(OC)c2-c2ccc(SC)c(=O)cc21	8 nM	8 nM	
27 nM	27 nM	27 nM	CCN(CC)C(=O)N[C@H]1CCc2c(Cl)c(OC)c(OC)c(OC)c2-c2ccc(SC)c(=O)cc21	27 nM	27 nM	IC50 [6]: 27 nM
			C=COc1c(OC)c(OC)cc2c1-c1ccc(OC)c(=O)cc1[C@@H](NC(C)=O)CC2			IC50 (CCRF-CEM): 12 nM
2 nM	2 nM	2 nM	CCC(=O)N[C@H]1CCc2c(Cl)c(OC)c(OC)c(OC)c2-c2ccc(SC)c(=O)cc21	2 nM	2 nM	IC50 [6]: 2 nM
			COc1cc2c(c(OC)c1OC)-c1ccc(NCCOC(=O)CCC(=O)Oc3ccc(CO[N+](=O)[O-])cc3)c(=O)cc1[C@@H](NC(C)=O)CC2			IC50 (A2780): 20 nM; IC50 (MCF7 [4]): 17 nM; IC50 (Bel-7402): 17 nM; IC50 (A549 [5]): 17 nM
			CCNc1ccc2c(cc1=O)[C@@H](NC(C)=O)CCc1cc(OC)c(OC)c(OC)c1-2			IC50 (P388): 29 nM
			COc1cc2c(c(OC)c1OC)-c1ccc(NN(C)C)c(=O)cc1[C@@H](NC(C)=O)CC2			IC50 (P388): 25 nM
7 nM	7 nM	7 nM	COc1c(Cl)c2c(c(OC)c1OC)-c1ccc(SC)c(=O)cc1[C@@H](NC(=O)OCC(F)(F)F)CC2	7 nM	7 nM	

SMILES	IC50 (LoVo)	IC50 (MCF7 [1])	IC50 (A549 [2])	IC50 (BALB/3T3)	IC50 [3]	also measured
COc1c(Br)c2c(c(OC)c1OC)-c1ccc(SC)c(=O)cc1[C@@H](NC(C)=O)CC2	14 nM				135 nM	
